The values below come from patent EP2829880A1, “Method for identifying modulators of BCRP/ABCG2-mediated ATP release and use of said modulators for treating diseases” (Energeia Biosciences, priority 2013, dated 2015).

As a reminder, the inhibition is the drop in the measured response relative to a control, in per cent. Read a low inhibition as a response near the control. What is called IC50 is the concentration needed to halve the response being measured. Usually Km stands for the substrate concentration at which the rate is half of its maximum.

Read-outs that look alike come from different tables or passages of the source. Bounds are passed on as bounds.

For series [1], the target named is T1, BCRP (ABCG2) (Homo sapiens, UniProt Q9UNQ0).
T1 sequence (Q9UNQ0 1-655): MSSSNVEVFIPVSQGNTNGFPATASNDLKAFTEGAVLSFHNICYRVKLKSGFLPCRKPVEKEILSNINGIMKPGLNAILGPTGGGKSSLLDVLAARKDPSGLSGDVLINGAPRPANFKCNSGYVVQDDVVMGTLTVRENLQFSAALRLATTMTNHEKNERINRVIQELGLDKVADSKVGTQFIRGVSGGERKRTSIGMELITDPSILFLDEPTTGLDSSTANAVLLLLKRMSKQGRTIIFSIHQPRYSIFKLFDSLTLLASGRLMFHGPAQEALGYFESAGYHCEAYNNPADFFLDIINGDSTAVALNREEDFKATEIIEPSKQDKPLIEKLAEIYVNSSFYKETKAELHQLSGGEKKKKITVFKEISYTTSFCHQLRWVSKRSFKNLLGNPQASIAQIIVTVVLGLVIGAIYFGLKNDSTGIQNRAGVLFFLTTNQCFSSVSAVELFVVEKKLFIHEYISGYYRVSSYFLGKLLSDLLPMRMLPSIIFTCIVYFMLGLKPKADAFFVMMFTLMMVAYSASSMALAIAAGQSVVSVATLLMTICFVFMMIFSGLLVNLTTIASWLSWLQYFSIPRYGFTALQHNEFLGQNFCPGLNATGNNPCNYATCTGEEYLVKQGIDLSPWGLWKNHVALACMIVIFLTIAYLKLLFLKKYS
Nature of the series: in vitro. The text has this: The uptake of ATP is plotted in pmol/mg protein/min. […] The uptake of a [3H] or [32P]-radiolabelled ATP by an ABC drug transporter selected from the group consisting of BCRP (ABCG2) or MRP1-6 (ABCC1-6) into membrane vesicles (stably overexpressing one type of ABC transporter) under conditions of low pH (compared with physiological pH) can be studied by radiochemical analysis. Subsequently, the effect of a test compound on the ABC drug transporter-mediated ATP release can be studied at different pH values (not shown in figure). • Figure 6: Schematic representation of the ABC drug transporter mediated-ATP-release assay. The transport of a [3H] or [32P]-radiolabelled ATP by an ABC drug transporter selected from the group consisting of BCRP (ABCG2) or MRP1-6 (ABCC1-6) into MDCKII cells (stably overexpressing one type of ABC drug transporter) under conditions of low extracellular pH (compared with physiological pH) and/or hypoxic conditions (0-1% O2, 5% CO2, 94-95% N2) (compared with normoxic conditions (20% O2, 5% CO2, 75% N2)) can be studied by radiochemical analysis or HPLC. Subsequently, the effect of a test compound on the ABC drug transporter-mediated ATP release can be studied at different pH values (not shown in figure). • Figure 7: Schematic representation of ABCG2 expression in normal tissues. Arrows indicate direction of substrate transport. In the brain and testis, ABCG2 is expressed mainly in the blood vessel endothelium, forming part of the blood-brain and blood-testis barrier, respectively. (from: Robey et al. Curr Pharm Biotechnol 2011) • Figure 8: Table 1: Cellular localization and function of ion exchange pumps • Figure 9: Table 2: Protein and/or gene expression of MRP/Mrp isoforms in various brain compartments in human and in mouse and in rat. Table adapted from Dallas et al. (45). • Figure 10: Chemical structure of Danshen compounds • Fig. 10 A: Chemical structures of compounds from Danshen (Salvia miltiorrhiza) • Fig. 10 B: Chemical structures of main lipophilic compounds from Danshen • Fig. 10 C: Chemical structure of main hydrophilic compounds from Danshen • Fig. 10 D: Chemical structure of Magnesium lithospermate B • Fig. 10 E: Chemical structure of salvianolic acid B • Fig. 10 F: Chemical structure of Indirubin
Membrane vesicles from (ABC transporter-transfected) Sf9 cells were prepared in isotonic vesicle buffer consisting of 50 mM Tris and 250 mM sucrose adjusted to pH 7.4. Vesicular transport assays were performed in vesicular transport assay buffer (50 mM HEPES/KOH, 100 mM KCI) as described before (Breedveld et al., 2004, 2007). The vesicular transport assay buffer and the solutions of all other reagents used in transport assays were adjusted to the appropriate pH (pH 6 or pH 7.4) by adding aliquots of HCl (37% w/w) for low pH. The pH of the final solution was controlled (Breedveld et al., 2007). […]
Curve fitting was performed by nonlinear regression analysis using the software package Graphpad Prism version 4 (GraphPad Software, San Diego, USA). Data from concentration-dependent transport assays were analyzed according to the classical Michaelis-Menten model (eq. 1) (Rowland and Tozer, 1995): v = (Vmax x [S])/(Km + [S]) [formula] where v is the rate of transport, Vmax is the maximum velocity, S is the substrate concentration, and Km is the substrate concentration at half-maximum velocity.

The target of series [2] is T1, BCRP (ABCG2). Set-up: made in house; host or cells: Sf9 insect cells (membrane vesicles). As to conditions: 1 µM MTX; cited from earlier work.
For series [3] the following is noted: cited from earlier work.
Substrate in series [4]: Nc1ncnc2c1ncn2[C@@H]1O[C@H](COP(=O)(O)OP(=O)(O)OP(=O)(O)O)[C@@H](O)[C@H]1O
The series is described as follows: cells, lysate or membranes named. The following applies: other: pH 6, saturable transport, 37°C, 5 min (Fig. 2A).

Consider `Nc1ncnc2c1ncn2[C@@H]1O[C@H](COP(=O)(O)OP(=O)(O)OP(=O)(O)O)[C@@H](O)[C@H]1O` [[^32P]-γ-labeled-ATP, adenosine 5'-triphosphate], for which the “net uptake into BCRP membrane vesicles” value is listed as 80 pmol/mg protein at BCRP (ABCG2) [1] (0.5 min, 100 µM, pH 6) and 194 pmol/mg protein on BCRP (ABCG2) [1] (10 min, 100 µM, pH 6).

On to `CN(Cc1cnc2nc(N)nc(N)c2n1)c1ccc(C(=O)N[C@@H](CCC(=O)O)C(=O)O)cc1` [MTX, methotrexate], for which the inhibition at 100 µM at BCRP (ABCG2) [1] (pH 6) is around 46%. Further, the “ATP-dependent transport by BCRP at pH 5.1 relative to physiological pH” value at BCRP (ABCG2) [2] was 7 fold. `CCN(CC)CCNC(=O)c1c(C)[nH]c(/C=C2\C(=O)Nc3ccc(F)cc32)c1C` [sunitinib]: the “increase of brain accumulation” value in series [3] (Abcb1a/b(-/-) mice) is reported as 2.3 fold; in series [3] (Abcb1a/b/Abcg2(-/-) mice), 23 fold. Take `COc1ccnc(C[S+]([O-])c2nc3ccc(OC(F)F)cc3[nH]2)c1OC` (stereo not shown) [pantoprazole]: the IC50 against BCRP (ABCG2) [1] is above 1000 µM.

Turning to `Nc1ncnc2c1ncn2[C@@H]1O[C@H](COP(=O)(O)OP(=O)(O)OP(=O)(O)O)[C@@H](O)[C@H]1O` [[^3H]ATP, adenosine 5'-triphosphate], at BCRP (ABCG2) [1] (0.5 min, 100 µM, pH 6), the “transport by BCRP at pH 6 relative to physiological pH” value came out at 3.8 fold.

B1: BCRP (ABCG2) (Homo sapiens) (protein)
chain: T1 sequence (Q9UNQ0 1-655)
As to B1, in series [4], the Km came to 2000 µM and the Vmax was found to be 1.5 nmoles/mg protein/min.
